Reference: patent publication US8592446B2, “[1,10]-phenanthroline derivatives for the treatment of neurodegenerative or haematological diseases” (Noscira, S.A., priority 2007, dated 2013)
Like-named read-outs stand apart in the source and are kept apart here.

Columns and labels:
[1] = system: SH-SY5Y human neuroblastoma cells; assay: Protection against 6-OHDA-induced cell death, condition B (no fetal bovine serum); format: cell-based; conditions: preincubated 1 hour, 6-OHDA 50 μM 24 hours, read-out: Protect. 6-OHDA (−FBS) (minimum concentration with neuroprotective effect)
Source text: (§1) The aim of this experiment is to determine the protective effect of the compounds of formula (1) against the toxicity caused by 6-OHDA. This toxin induces a cell death similar to which occurs in Parkinson's disease, destroying dopaminergic neurons (“MPTP and 6-hydroxydopamine-induced neurodegeneration as models for Parkinson's disease: neuroprotective strategies”; Grunblatt E, et al.; J Neurol. 2000 Apr; 247 Suppl 2:II95-102).
(§2) Two or three days before the experiment, the SH-SY5Y human neuroblastoma cells are seeded into 96-well culture plate at a density of 10^4 cells/well. Cells are exposed to the treatment with 6-OHDA and, finally, cell death is measured by LDH quantification. As positive control we used NAC.
• B) NAC and the compound of formula (I) are preincubated during 1 hour before the treatment with 6-OHDA 50 μM during 24 hours. The assay is performed in a medium without any fetal bovine serum.
(§3) For each compound the minimum concentration of compound of formula (I) at which a neuroprotective effect is shown.

[2] = Chelating ability with Fe(II) (absorbance spectra); format: physicochemical
Protocol: FIG. 2 is an absorbance spectrum of the complex Fe(II)-Compound 4. Concentration of Fe(II) and Compound 4, 200 μM, PBS 10 mM, pH 8.
FIG. 3 is an absorbance spectrum of the complex Fe(II)-Compound 7. Concentration of Fe(II) and Compound 7 , 400 μM, PBS 10 mM, pH 8.
FIG. 4 is an absorbance spectrum of the complex Fe(II)-Compound 8. Concentration of Fe(II) and Compound 8, 200 μM, PBS 10 mM, pH 7.4.
FIG. 5 is an absorbance spectrum of the complex Fe(II)-Compound 10. Concentration of Fe(II) and Compound 10, 100 μM, PBS 10 mM, pH 7.4.
(§4) Therefore, it may be observed that the compounds of formula (I) have a high affinity to Fe (II) in comparison to the rest of metalic ions tested.

[3] = Chelating ability with Zn (II) (absorbance spectra); format: physicochemical
Protocol: FIG. 8 represents the absorbance spectra of the complex Zn(II)-Compound 4. Concentration 200 μM, PBS 10 mM, pH 7.4.
Concentration 180 μM, PBS 10 mM, pH 7.4.
Concentration 100 μM, PBS 10 mM, pH 7.4.
Concentration 20 μM, PBS 10 mM, pH 7.4. […]

[4] = system: SH-SY5Y human neuroblastoma cells; assay: Protection against 6-OHDA-induced cell death, condition A (10% foetal bovine serum); format: cell-based; conditions: preincubated 2 hours, 6-OHDA 75 μM 16 hours, read-out: Protect. 6-OHDA (+ FBS) (minimum concentration with neuroprotective effect)
Source text: as §1, §2
• A) NAC and the compound of formula (I) are preincubated during 2 hours before the treatment with 6-OHDA 75 μM during 16 hours. The assay is performed in medium containing 10% Foetal bovine serum.
as §3

[5] = Chelating ability with Cu (II) (absorbance spectra); format: physicochemical; conditions: 200 μM, PBS 10 mM, pH 7.4, FIG. 6
Protocol: FIG. 6 depicts the absorbance spectra of the mixture of Cu (II) and each of the quelating ligands (Compound 4, Compound 7, Compound 8). Concentration of Cu(II) and all compounds 200 μM, PBS 10 mM, pH 7.4.
FIG. 7 is the absorbance spectra of the complex Cu(II)-Compound 10. Concentration 200 μM, PBS 10 mM, pH 7.4.
as §4

[6] = Screening pharmacokinetic study, plasma and brain (LC-MS/MS); format: in vivo, mice (C57BL6/J); conditions: mice; for Kp / bioavailability / Tmax / half-life / AUC / Cmax: male, C57BL6/J, mouse; for Kp: brain and plasma
Protocol: The objective of this study is to evaluate the oral bioavailability and the plasmatic and brain pharmacokinetic parameters after oral and intravenous administration, thus determining if compounds of formula (I) are able to cross the blood brain barrier (BBB). […] Each compound was solved in appropriate excipients. In the case of oral administration, compound was administered by means of an oral gavage coupled to a syringe. In the intravenous administration animals, the test item was administered by a single injection with a syringe coupled to a 30 G needle.
Two animals were sacrificed (according to internal SOPs and following animal handling and welfare guidelines) at each selected extraction times (i.e. 30 min, 1 h, 2 h, 4 h, 6 h, 8 h and 24 hours after administration), and from each animal, both brain and blood samples were obtained. Plasma was extracted by centrifugation of the blood samples. Each sample time represents two male mice from which samples were obtained.
The method for the analysis of plasma and brain samples involved isolation of the analyte from the biological matrix by protein precipitation or solid-phase extraction followed by analysis using LC-MS/MS. Limits of quantification for these compounds were in the order of 2-10 ng/mL. The software Winnonlin professional version 5.2 was used for the calculation of pharmacokinetic parameters.
In the following tables, the abbreviations have the meaning indicated below: • AUC=Area under the curve • T1/2=Half-life • Tmax=the time after administration of a drug when the maximum plasma concentration is reached; when the rate of absorption equals the rate of elimination • Cmax=maximum plasma concentration of the drug • V. Adm. and Vol. Adm.=volume of administration

[7] = Chelating ability with Fe (III) (absorbance spectra); format: physicochemical; conditions: PBS 10 mM, pH 7.4, ligand and Fe(III) 200 μM, FIG. 1
Protocol: FIG. 1 is an absorbance spectrum of compounds 4, 7, 8 and 10 in absence and presence of Fe(III). PBS 10 mM, pH 7.4. Concentration of ligand and Fe(III), 200 μM.
Only one line is observed, as the spectra are overlapping (see FIG. 1).

[8] = Fe (II) complex, pH 8*, expecting time 30 min (4) or 60 min (7)
[9] = Zn (II) complex, pH 7.4, expecting time 24 h (4, 7) or 4 h (8, 10)
[10] = intravenous route, group 1-2 mg/kg (Compound 4, 8: 1.00; 7: 1.20; 10: 2.00 mg/Kg), brain
[11] = intravenous route, group 1-2 mg/kg (Compound 4, 8: 1.00; 7: 1.20; 10: 2.00 mg/Kg), plasma

- Dissociation grade [2, 8]: 0.147 ± 0.002
- Stoichiometry [2, 8]: 1:3 (ML3)
- ε approx. [2, 8]: ~1800 L/mol/cm
- Ability to complex Fe (II) (spectrum of mixture vs sum of individual spectra) ([2]; PBS 10 mM, pH 7.4 or 8, FIGS. 2-5): able to complex the Fe (II)
- Ability to complex Zn(II) ([3]; PBS 10 mM, pH 7.4, FIGS. 8-11): complexed with Zn(II) to an extent
- Dissociation grade [3, 9]: 46 ± 7
- Stoichiometry [3, 9]: 1:1 (ML)
- ε approx. [3, 9]: ~1000 L/mol/cm
- Kp ([6]; iv, brain AUC relative to plasma AUC, intravenous route, group 1-2 mg/kg, read-out: % AUC): 1.27
- Kp ([6]; iv, brain Cmax relative to plasma Cmax, intravenous route, group 1-2 mg/kg, read-out: % Cmax): 1.33
- Kp ([6]; po, 20 mg/kg, brain AUC relative to plasma AUC, 20 mg/kg oral route, read-out: % AUC): 2.76
- Kp ([6]; po, 20 mg/kg, brain Cmax relative to plasma Cmax, 20 mg/kg oral route, read-out: % Cmax): 0.742
- Kp ([6]; po, 200 mg/kg, brain AUC relative to plasma AUC, 200 mg/kg oral route, read-out: % AUC): 1.12
- Kp ([6]; po, 200 mg/kg, brain Cmax relative to plasma Cmax, 200 mg/kg oral route, read-out: % Cmax): 1.5
- bioavailability ([6]; plasma, 20 mg/kg oral route (low dose)): 1.01%
- bioavailability ([6]; plasma, 200 mg/kg oral route (high dose)): 19.1%
- Tmax ([6]; 20 mg/kg oral route, brain): 15 min
- half-life ([6]; 20 mg/kg oral route, brain): 39.6 min
- AUC ([6]; 20 mg/kg oral route, plasma): 7.24 ng·h/mL
- Cmax ([6]; 20 mg/kg oral route, plasma): 20.8 ng/mL
- Tmax ([6]; 20 mg/kg oral route, plasma): 15 min
- half-life ([6]; 20 mg/kg oral route, plasma): 18 min
- Tmax ([6]; 200 mg/kg oral route, brain): 30 min
- half-life ([6]; 200 mg/kg oral route, brain): 56.4 min
- AUC ([6]; 200 mg/kg oral route, plasma): 1380 ng·h/mL
- Cmax ([6]; 200 mg/kg oral route, plasma): 931 ng/mL
- Tmax ([6]; 200 mg/kg oral route, plasma): 30 min
- half-life ([6]; 200 mg/kg oral route, plasma): 55.2 min
- Tmax [6, 10]: 15 min
- half-life [6, 10]: 23.4 min
- AUC [6, 11]: 36 ng·h/mL
- Cmax [6, 11]: 78.7 ng/mL
- Tmax [6, 11]: 15 min
- half-life [6, 11]: 13.2 min
- Cmax Brain ([6]; 20 mg/kg oral route, brain): 15.40 ng/g
- Cmax Brain ([6]; 200 mg/kg oral route, brain): 1394.40 ng/g
- Cmax Brain [6, 10]: 104.40 ng/g
- Ability to complex Fe (III) (change in absorbance spectra) [7]: no change in the absorbance spectra
SMILES: CSc1cc(/C=N/O)nc2c1ccc1cccnc12 [Compound 4, 4-Methylsulfanyl-[1,10]phenanthroline-2-carbaldehyde oxime]
- minimal effective concentration [1]: 0.5 µM
- Formation constant ([2]; Fe (II) complex 1:3 (ML3), pH 8*, expecting time 30 min (4) or 60 min (7)): 8.2 ± 0.5 · 10^12
- Formation constant ([3]; Zn (II) complex 1:1 (ML), pH 7.4, expecting time 24 h): 2.2 ± 0.6 · 10^4 l/mol
- minimal effective concentration [4]: 0.05 µM
- Ability to complex Cu (II) (spectrum of mixture vs sum of individual spectra) [5]: none of the ligands are able to complex the Cu (II)
